From patent US7354567B2, “Method of encapsulating metal complex within liposomes” (Bio Med Core Incorporation, priority 2002, dated 2008)
Blank lines part the entries; values can stand above or below the molecule they belong to.

Columns and labels:
[1] = Partition coefficient of HMPAO and MRP20 (octanol/buffer, absorbance); assay type: physicochemical
Experimental: 4. Measurement of Partition Coefficient of HMPAO and MRP20
20 μl of HMPAO or MRP20 solutions adjusted to 8 mM with a physiology saline solution was added to 500 μl of octanol and 500 μl of a HEPES buffer solution (pH 7.0) or Na2HPO4—NaOH buffer solution (pH 12.0). The mixture was allowed to stand still after stirring. Absorption of the octanol layer and the aqueous layer was measured, and the lipophilic properties of the two complexes were compared.

[2] = Stability of 99mTc complex in an aqueous solution (radiochemical purity over time); assay type: physicochemical; details: for radiochemical purity: after purification by RP-HPLC, after 24 hours
Experimental: 5. Stability of ^99mTc Complex in an Aqueous Solution
In order to compare the stability of ^99mTc-HMPAO and ^99mTc-MRP20 in an aqueous solution, ^99mTc-HMPAO solution was diluted with 50 mM ammonia buffer solution (pH 9.4) into the final ligand concentration of 1 mM. The mixture was incubated in a water bath of 25° C. or 37° C., and radiochemical purity was determined by the above-mentioned analyzing methods after predetermined time (0.5, 2, 4, 8, or 24 hours). ^99mTc-MRP20 aqueous solution was diluted with 50 mM phosphate buffer solution (pH 8.3), and the similar operations were effected.
For the purpose of examining the effect of free ligands on the stability, ^99mTc complex solution was purified by RP-HPLC, and the purified ^99mTc complex solution eluted in 100% acetonitrile was mixed and diluted in the ratio of 1:1 with a buffer solution, and changes over time of the radiochemical purity of the complex was examined similarly as for the complex before purification.

- Absorbance transferred to the octanol layer ([1]; octanol / buffer (pH 7.0 or pH 12.0)): below the detection limit
Molecule: C/C(=N\O)C(C)NCC(C)(C)CNC(C)/C(C)=N/O (centres unmarked) [HMPAO, hexamethyl propyleneamine oxime, reference compound]

- ratio of absorbances in the octanol layer and the water layer ([1]; pH of the buffer 7.0): 2.1±0.7
- ratio of absorbances in the octanol layer and the water layer ([1]; pH of the buffer 12.0): 5.0±1.6
Molecule: CC(=O)C=C(C)NCCNCc1ccc[nH]1 [MRP20, N-[2-(1H-pyrrolylmethyl)]-N′-(4-penten-3-one-2)-ethane-1,2-diamine]

- radiochemical purity ([2]; 25° C.): 59%
- radiochemical purity remaining (decomposed to) ([2]; unpurified complex, 30 minutes after complex formation): about 40%
Molecule: C/C(=N\[O-])[C@@H](C)[N-]CC(C)(C)C[N-][C@H](C)/C(C)=N/O.[O]=[99Tc+3] [^99mTc-HMPAO, ^99mTc-hexamethyl propyleneamine oxime, reference compound]

- radiochemical purity ([2]; 25° C.): 6%
- radiochemical purity remaining (decomposed to) ([2]; unpurified complex, 25° C., 4 hours after complex formation): about 40%
- radiochemical purity retained ([2]; unpurified complex, 2 hours after complex formation): about 70%
Molecule: ^99mTc-N-[2-(1H-pyrrolylmethyl)]-N′-(4-penten-3-on-2)-ethane-1,2-diamine [^99mTc-MRP20]
